Where only a bound is given, the exact number is not on record here.

Sequence of human GSK3β (P49841 whole entry): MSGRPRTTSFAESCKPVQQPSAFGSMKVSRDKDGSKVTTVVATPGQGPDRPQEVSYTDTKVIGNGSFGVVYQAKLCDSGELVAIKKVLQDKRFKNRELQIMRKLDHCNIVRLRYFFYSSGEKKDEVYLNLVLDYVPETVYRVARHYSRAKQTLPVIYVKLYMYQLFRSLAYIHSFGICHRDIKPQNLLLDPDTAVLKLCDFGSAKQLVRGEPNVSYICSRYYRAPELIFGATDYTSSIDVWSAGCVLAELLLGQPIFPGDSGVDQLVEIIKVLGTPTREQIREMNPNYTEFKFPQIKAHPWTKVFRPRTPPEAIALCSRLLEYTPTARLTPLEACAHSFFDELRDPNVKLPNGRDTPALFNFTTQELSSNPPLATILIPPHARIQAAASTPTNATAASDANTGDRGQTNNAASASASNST

The experiment concerns the target human GSK3β (Homo sapiens, UniProt P49841). Description: Screening for GSK3 inhibitory activity using a cell-free assay. Format: biochemical. Particulars: read-out: IC50 with respect to GSK3. In short, it runs like this:
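Compounds in DMSO were tested against human GSK3β over a three-hour kinase reaction. Radiolabeled phosphate transferred to the peptide was captured on streptavidin plates after EDTA/ATP stop and quantified by scintillation counting. Signal was plotted versus compound concentration.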
`Cc1nccn1-c1cnc(NCCNc2ccc([N+](=O)[O-])cn2)nc1-c1ccc(Cl)cc1Cl` [[4-(2,4-dichlorophenyl)-5-(2-methylimidazolyl)pyrimidin-2-yl]{2-[(5-nitro(2-pyridyl))amino]ethyl}amine]: the IC50 was not above 1000 nM.
Under `Cc1c[nH]c(-c2cnc(NCCNc3ccc([N+](=O)[O-])cn3)nc2-c2ccc(Cl)cc2Cl)n1` [[4-(2,4-dichlorophenyl)-5-(4-methylimidazol-2-yl)pyrimidin-2-yl]{2-[(5-nitro(2-pyridyl))amino]ethyl}amine] stands not above 1000 nM.
As for `Cc1cn(-c2cnc(NCCNc3ccc([N+](=O)[O-])cn3)nc2-c2ccc(Cl)cc2Cl)cn1` [[4-(2,4-dichlorophenyl)-5-(4-methylimidazolyl)pyrimidin-2-yl]{2-[(5-nitro(2-pyridyl))amino]ethyl}amine], the IC50 is not above 1000 nM.
As for `CN1CCN(c2cnc(NCCNc3ccc([N+](=O)[O-])cn3)nc2-c2ccc(Cl)cc2Cl)CC1` [[4-(2,4-dichlorophenyl)-5-(4-methylpiperazinyl)pyrimidin-2-yl]{2-[(5-nitro(2-pyridyl))amino]ethyl}amine], the IC50 was not above 1000 nM.
Under `O=[N+]([O-])c1ccc(NCCNc2ncc(CN3CCOCC3)c(-c3ccc(Cl)cc3Cl)n2)nc1` [[4-(2,4-dichlorophenyl)-5-(morpholin-4-ylmethyl)pyrimidin-2-yl]{2-[(5-nitro(2-pyridyl))amino]ethyl}amine] stands not above 1000 nM; under `CCc1cnc(NCCNc2ccc([N+](=O)[O-])cn2)nc1-c1ccc(Cl)cc1Cl` [[4-(2,4-dichlorophenyl)-5-ethylpyrimidin-2-yl]{2-[(5-nitro(2-pyridyl))amino]ethyl}amine], not above 1000 nM; under `FC(F)(F)c1ccc(NCCNc2ncc(-c3ncc[nH]3)c(-c3ccc(Cl)cc3Cl)n2)nc1` [[4-(2,4-dichlorophenyl)-5-imidazol-2-ylpyrimidin-2-yl](2-{[5-(trifluoromethyl)(2-pyridyl)]amino}ethyl) amine], not above 1000 nM.
The figure for `O=[N+]([O-])c1ccc(NCCNc2ncc(-c3ncc[nH]3)c(-c3ccc(Cl)cc3Cl)n2)nc1` [[4-(2,4-dichlorophenyl)-5-imidazol-2-ylpyrimidin-2-yl]{2-[(5-nitro(2-pyridyl))amino]ethyl}amine] is not above 1000 nM; for `COc1nc(NCCNc2ncc(-c3ncc[nH]3)c(-c3ccc(Cl)cc3Cl)n2)ccc1[N+](=O)[O-]` [[4-(2,4-dichlorophenyl)-5-imidazol-2-ylpyrimidin-2-yl]{2-[(6-methoxy-5-nitro(2-pyridyl))amino]ethyl}amine] it is not above 1000 nM; for `O=[N+]([O-])c1ccc(NCCN(CCN2CCOCC2)c2ncc(-n3ccnc3)c(-c3ccc(Cl)cc3Cl)n2)nc1` [[4-(2,4-dichlorophenyl)-5-imidazolylpyrimidin-2-yl](2-morpholin-4-ylethyl){2-[(5-nitro(2-pyridyl))amino]ethyl}amine] it is not above 1000 nM.
The figure for `CN(C)CCN(CCNc1ccc([N+](=O)[O-])cn1)c1ncc(-n2ccnc2)c(-c2ccc(Cl)cc2Cl)n1` [[4-(2,4-dichlorophenyl)-5-imidazolylpyrimidin-2-yl][2-(dimethylamino)ethyl]{2-[(5-nitro(2-pyridyl))amino]ethyl}amine] is not above 1000 nM.
For the molecule `O=[N+]([O-])c1ccc(NCCN(CCN2CCCC2)c2ncc(-n3ccnc3)c(-c3ccc(Cl)cc3Cl)n2)nc1` [[4-(2,4-dichlorophenyl)-5-imidazolylpyrimidin-2-yl]{2-[(5-nitro(2-pyridyl))amino]ethyl}(2-pyrrolidinylethyl)amine], the IC50 was not above 1000 nM.
The figure for `Clc1ccc(-c2ccnc(NCCNc3ccccn3)n2)c(Cl)c1` [[4-(2,4-dichlorophenyl)pyrimidin-2-yl][2-(2-pyridylamino)ethyl]amine] is not above 10000 nM; for `Cc1nc(C)c(-c2ccnc(NCCNc3ccc([N+](=O)[O-])cn3)n2)s1` [[4-(2,4-dimethyl(1,3-thiazol-5-yl))pyrimidin-2-yl]{2-[(5-nitro(2-pyridyl))-amino]ethyl}amine] it is not above 10000 nM.
Under `O=[N+]([O-])c1ccc(NCCNc2ncc(-c3ncc[nH]3)c(-c3ccc(F)cc3Cl)n2)nc1` [[4-(2-chloro-4-fluorophenyl)-5-imidazol-2-ylpyrimidin-2-yl]{2-[(5-nitro(2-pyridyl))amino]ethyl}amine] stands not above 1000 nM; under `COc1ccc(OC)c(CCNc2nccc(-c3ccc(C(=O)NCc4cccc(Br)c4)cc3)n2)c1` [[4-(2-{[2-(2,5-dimethoxyphenyl)ethyl]amino}pyrimidin-4-yl)phenyl]-N-[(3-bromophenyl)methyl]carboxamide], not above 10000 nM; under `Cc1cccc(CNC(=O)c2ccc(-c3ccnc(NCc4cccc(Br)c4)n3)cc2)c1` [[4-(2-{[(3-bromophenyl)methyl]amino}pyrimidin-4-yl)phenyl]-N-[(3-methylphenyl)methyl]carboxamide], not above 10000 nM.
The figure for `Fc1ccc(-c2ccnc(NCCNc3ccccn3)n2)cc1F` [[4-(3,4-difluorophenyl)pyrimidin-2-yl][2-(2-pyridylamino)-ethyl]amine] is not above 10000 nM; for `O=[N+]([O-])c1ccc(NCCNc2ncc(-c3ncc[nH]3)c(-c3ccc(Br)cc3Cl)n2)nc1` [[4-(4-bromo-2-chlorophenyl)-5-imidazol-2-ylpyrimidin-2-yl]{2-[(5-nitro(2-pyridyl))amino]ethyl}amine] it is not above 1000 nM.
On to `O=[N+]([O-])c1ccc(NCCNc2ncc(-c3ncc[nH]3)c(-c3ccc(Cl)cc3)n2)nc1` [[4-(4-chlorophenyl)-5-imidazol-2-ylpyrimidin-2-yl]{2-[(5-nitro(2-pyridyl))amino]ethyl}amine], for which the IC50 was not above 1000 nM.
Under `Cc1cnc(NCCNc2ccccn2)nc1-c1ccc(Cl)cc1` [[4-(4-chlorophenyl)-5-methylpyrimidin-2-yl][2-(2-pyridylamino)ethyl]amine] stands not above 10000 nM; under `N#Cc1ccc(-c2nc(NCCNc3ccc([N+](=O)[O-])cn3)ncc2C(=O)NCc2ccncc2)cc1` [[4-(4-cyanophenyl)-2-({2-[(5-nitro(2-pyridyl))-amino]ethyl}amino)pyrimidin-5-yl]-N-(4-pyridylmethyl)carboxamide], not above 1000 nM; under `CN(C)C(=O)c1cnc(NCCNc2ccc([N+](=O)[O-])cn2)nc1-c1ccc(C#N)cc1` [[4-(4-cyanophenyl)-2-({2-[(5-nitro(2-pyridyl))amino]ethyl}-amino)pyrimidin-5-yl]-N,N-dimethylcarboxamide], not above 1000 nM.
The figure for `CNC(=O)c1cnc(NCCNc2ccc([N+](=O)[O-])cn2)nc1-c1ccc(C#N)cc1` [[4-(4-cyanophenyl)-2-({2-[(5-nitro(2-pyridyl))amino]ethyl}amino)-pyrimidin-5-yl]-N-methylcarboxamide] is not above 1000 nM; for `N#Cc1ccc(-c2nc(NCCNc3ccc([N+](=O)[O-])cn3)ncc2C(=O)NCCO)cc1` [[4-(4-cyanophenyl)-2-({2-[(5-nitro(2-pyridyl))amino]ethyl}amino)pyrimidin-5-yl]-N-(2-hydroxyethyl)carboxamide] it is not above 1000 nM.
Take `N#Cc1ccc(-c2nc(NCCNc3ccc([N+](=O)[O-])cn3)ncc2C(=O)NCc2ccccc2)cc1` [[4-(4-cyanophenyl)-2-({2-[(5-nitro(2-pyridyl))amino]ethyl}amino)pyrimidin-5-yl]-N-benzylcarboxamide]: the IC50 is not above 1000 nM.
In the case of `Cc1cn(-c2ccccc2)nc1-c1ccnc(NCCNc2ccccn2)n1` [[4-(4-methyl-1-phenylpyrazol-3-yl)pyrimidin-2-yl][2-(2-pyridyl-amino)ethyl]amine], the IC50 was not above 10000 nM.
Under `O=[N+]([O-])c1ccc(-c2ccnc(NCCNc3ccccn3)n2)cc1` [[4-(4-nitrophenyl)pyrimidin-2-yl][2-(2-pyridylamino)ethyl]amine] stands not above 10000 nM; under `c1ccc(Cc2cnc(NCCNc3ccccn3)nc2-c2ccccc2)cc1` [[4-phenyl-5-benzyl-pyrimidin-2-yl][2-(2-pyridylamino)ethyl]amine], not above 10000 nM.
Under `O=[N+]([O-])c1ccc(NCCNc2ncc(-c3ccc(F)cc3)cn2)nc1` [[5-(4-fluorophenyl)pyrimidin-2-yl]{2-[(5-nitro(2-pyridyl))amino]ethyl}amine] stands not above 10000 nM; under `C/C(=N\c1cnc(NCCNc2ccc([N+](=O)[O-])c(N)n2)nc1-c1ccc(Cl)cc1Cl)N1CCOCC1` [[5-((1E)-1-aza-2-morpholin-4-ylprop-1-enyl)-4-(2,4-dichlorophenyl)pyrimidin-2-yl]{2-[(6-amino-5-nitro(2-pyridyl))amino]ethyl}amine], not above 1000 nM; under `Nc1cnc(NCCNc2ccc([N+](=O)[O-])c(N)n2)nc1-c1ccc(Cl)cc1Cl` [[5-amino-4-(2,4-dichlorophenyl)pyrimidin-2-yl]{2-[(6-amino-5-nitro(2-pyridyl))amino]ethyl}amine], not above 1000 nM.
Under `O=[N+]([O-])c1ccc(NCCNc2ncc(-n3cnc4ccccc43)c(-c3ccc(Cl)cc3Cl)n2)nc1` [[5-benzimidazolyl-4-(2,4-dichlorophenyl)pyrimidin-2-yl]{2-[(5-nitro-(2-pyridyl))amino]ethyl}amine] stands not above 1000 nM; under `O=[N+]([O-])c1ccc(NCCNc2ncc(-n3nnc4ccccc43)c(-c3ccc(Cl)cc3Cl)n2)nc1` [[5-benzotriazolyl-4-(2,4-dichlorophenyl)pyrimidin-2-yl]{2-[(5-nitro(2-pyridyl))amino]ethyl}amine], not above 1000 nM.
With `O=[N+]([O-])c1ccc(NCCNc2ccc(-n3ccnc3)c(-c3ccc(Cl)cc3Cl)n2)nc1` [[6-(2,4-dichlorophenyl)-5-imidazolyl(2-pyridyl)]{2-[(5-nitro(2-pyridyl))amino]ethyl}amine], the IC50 is not above 1000 nM.
`O=[N+]([O-])c1ccc(NCCNc2nccc(NCc3cc(Cl)cc(Cl)c3)n2)nc1` [[(3,5-dichlorophenyl)methyl][2-({2-[(5-nitro(2-pyridyl))amino]ethyl}amino)pyrimidin-4-yl]amine]: the IC50 is not above 10000 nM.

Source of the values: patent US7425557B2, “Inhibitors of glycogen synthase kinase 3” (Novartis Vaccines and Diagnostics, Inc., priority 1998, dated 2008).
